Measurements as given in PubChem BioAssay AID2060330 (Molecular Pharmacology Branch, DTP, NCI, 2025).
“And” between values parts separate entries of the source, which are not always exact repeats. Equal values may be shown once.

Tested on: LG0703-F948-PDC spheroids with HUVEC/MSC, viability
Assay: Anticancer human tumor LG0703-F948-PDC patient-derived lung adenocarcinoma cell line growth inhibition [IpAb]
Conditions: for viability, T/C: stronger effect = lower value
Description: Combinatorial screen of targeted agents with ipatasertib and abemaciclib in multi-cell type tumor spheroids
A high-throughput screen of multi-cell type tumor spheroids was designed to identify active combinations of targeted small molecules and ipatasertib or abemaciclib. Complex spheroids include a stromal component modeled by human endothelial cells (HUVEC) and fibroblasts modeled by human mesenchymal stem cells (MSCs). The concentration ranges selected for each drug and investigational agent were based upon clinically achievable concentrations if the clinical Cmax of the agent was known.
Compounds. The drugs and investigational agents: ipatasertib (NSC767898), abemaciclib(NSC768073), selumetinib (NSC741078), trametinib (758246), adavosertib (NSC754352), everolimus (NSC733504), sapanisertib (NSC764658), vemurafenib (NSC761431), venetoclax (NSC766270), copanlisib (NSC809693), apelisib (NSC765974), palbociblib (NSC758247), vemurafenib (NSC761431), dabrafenib (NSC764134), ravoxertinib (NSC781343), BMS-387032 (NSC767048), sotorasib (NSC818433), talazoparib (NSC767125) and afursertib (NSC778305), were obtained from the National Cancer Institute (NCI) Developmental Therapeutics Program Chemical Repository. The FDA-approved anticancer drug set is available from the NCI Developmental Therapeutics Program. […] The stock solutions were prepared in dimethyl sulfoxide (DMSO, Sigma-Aldrich, St. Louis, MO, cat. D2650) at 800-fold the tested concentration and stored at -70 degrees C prior to their use. All drugs and investigational agents were tested over a range starting from a high concentration at or near the clinical Cmax and decreasing in half-log increments. If the clinical Cmax for an agent had not been determined, the highest concentration tested was 10 microM.
NCI60 Cell Culture. NCI60 cell lines were obtained from the NCI Developmental Therapeutics Program Tumor Repository. For each lot of cells, the Repository performed Applied Biosystems AmpFLSTR Identifiler testing with PCR amplification to confirm consistency with the published Identifier STR profile for each cell line. Cells were kept in continuous culture for no more than 20 passages. The optimal seeding densities for each of the cell lines at each time point assessed were determined prior to performing the concentration response studies. Briefly, the NCI60 human tumor lines were grown as monolayers in RPMI 1640 medium supplemented with 10% FBS and 2 mmol/L L-glutamine.
An additional 9 lines were from the NCI60 cell line panel including MDA-MB-231 breast carcinoma, MDA-MB-468 breast carcinoma, MCF7 breast carcinoma, Hs578T breast carcinoma, MALME-3M melanoma, SK-MEL-2 melanoma, SK-OV-3 ovarian carcinoma, DU-145 prostate carcinoma, PC-3 prostate carcinoma, all cell lines along with major genetic alterations are listed on Table 2. Pooled donor human umbilical vein endothelial cells (HUVEC, Lonza, cat. CC-2519) and human mesenchymal stem cells (hMSC, Lonza, cat. PT-2501) were purchased from Lonza (Walkersville, MD).
PDMR cell lines were grown in complete medium (DC medium): Dulbecco's modified Eagle's medium (DMEM)/F12 supplemented with 5% fetal bovine serum (FBS), 2 mM L-glutamine, 100 U/mL penicillin and 100 µg/ml streptomycin, 0.4 µg/ml hydrocortisone, 10 ng/ml epidermal growth factor (EGF) recombinant human protein, 24 µg/mL adenine, and 0.1 mg/mL primocin. During culture from frozen stock vials, PDMR cells were cultured in the same medium containing 10 µM Y-27632 (see Table 3). The PDCs were cultured in complete DMEM/F12 media without 10 microM Y-27632 dihydrochloride for at least two passages prior to the screen. The pooled donor HUVEC and hMSC were cultured in endothelial cell growth medium 2 (PromoCell, Heidelberg, Germany, cat. C-22011) and mesenchymal stem cell growth medium 2 (PromoCell, cat. C-28009), respectively. For all experiments, HUVEC and hMSC were used at passages </=5.
[…]

[1] = curve of first compound, second compound 0.1 µM
[2] = curve of first compound, second compound 0.316 µM
[3] = curve of first compound, second compound 1 µM
[4] = curve of first compound, second compound 3.16 µM
[5] = curve of first compound, second compound 10 µM
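Note: spheroids exposed to compounds for seven days before readout.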
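Throughout, for viability, T/C: T/C percent relative to DMSO vehicle wells set as 100% viability.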

Cn1ncnc1[C@H]1c2n[nH]c(=O)c3cc(F)cc(c23)N[C@@H]1c1ccc(F)cc1
viability, T/C (compound 0.000316 µM): 108% and 102%
viability, T/C (compound 0.001 µM): 100% and 95.7%
viability, T/C (compound 0.00316 µM): 96.7% and 99%
viability, T/C (compound 0.01 µM): 102% and 101%
viability, T/C (compound 0.0316 µM): 87.6% and 92.6%
viability, T/C (compound 0.1 µM): 83.5% and 84.1%
IC50 (curve of compound): > 0.1 µM

Cn1cnc2c(F)c(Nc3ccc(Br)cc3Cl)c(C(=O)NOCCO)cc21 + CC(C)NCC(C(=O)N1CCN(c2ncnc3c2C(C)CC3O)CC1)c1ccc(Cl)cc1
IC50 [1]: 0.0124 µM
IC50 [2]: < 0.00949 µM
IC50 [3]: < 0.00949 µM
IC50 [4]: < 0.00949 µM
IC50 [5]: < 0.00949 µM
viability, T/C (second compound 0.1 µM, first compound 0.00949 µM): 55%
viability, T/C (second compound 0.1 µM, first compound 0.03 µM): 35.1%
viability, T/C (second compound 0.1 µM, first compound 0.0949 µM): 27.4%
viability, T/C (second compound 0.1 µM, first compound 0.3 µM): 20.1%
viability, T/C (second compound 0.1 µM, first compound 0.949 µM): 18.3%
viability, T/C (second compound 0.1 µM, first compound 3 µM): 14%
viability, T/C (second compound 0.316 µM, first compound 0.00949 µM): 36.3%
viability, T/C (second compound 0.316 µM, first compound 0.03 µM): 19.5%
viability, T/C (second compound 0.316 µM, first compound 0.0949 µM): 14.1%
viability, T/C (second compound 0.316 µM, first compound 0.3 µM): 7.81%
viability, T/C (second compound 0.316 µM, first compound 0.949 µM): 7.98%
viability, T/C (second compound 0.316 µM, first compound 3 µM): 3.28%
viability, T/C (second compound 1 µM, first compound 0.00949 µM): 21.6%
viability, T/C (second compound 1 µM, first compound 0.03 µM): 12.9%
viability, T/C (second compound 1 µM, first compound 0.0949 µM): 5.36%
viability, T/C (second compound 1 µM, first compound 0.3 µM): 3.84%
viability, T/C (second compound 1 µM, first compound 0.949 µM): 2.91%
viability, T/C (second compound 1 µM, first compound 3 µM): 1.32%
viability, T/C (second compound 3.16 µM, first compound 0.00949 µM): 13.7%
viability, T/C (second compound 3.16 µM, first compound 0.03 µM): 6.24%
viability, T/C (second compound 3.16 µM, first compound 0.0949 µM): 3.66%
viability, T/C (second compound 3.16 µM, first compound 0.3 µM): 3.22%
viability, T/C (second compound 3.16 µM, first compound 0.949 µM): 2.57%
viability, T/C (second compound 3.16 µM, first compound 3 µM): 3.42%
viability, T/C (second compound 10 µM, first compound 0.00949 µM): 7.41%
viability, T/C (second compound 10 µM, first compound 0.03 µM): 4.11%
viability, T/C (second compound 10 µM, first compound 0.0949 µM): 1.36%
viability, T/C (second compound 10 µM, first compound 0.3 µM): 2.06%
viability, T/C (second compound 10 µM, first compound 0.949 µM): 1%
viability, T/C (second compound 10 µM, first compound 3 µM): 0.28%

C=CCn1c(=O)c2cnc(Nc3ccc(N4CCN(C)CC4)cc3)nc2n1-c1cccc(C(C)(C)O)n1 + CC(C)NCC(C(=O)N1CCN(c2ncnc3c2C(C)CC3O)CC1)c1ccc(Cl)cc1
IC50 [1]: 0.704 µM
IC50 [2]: 0.243 µM
IC50 [3]: < 0.0316 µM
IC50 [4]: < 0.0316 µM
IC50 [5]: < 0.0316 µM
viability, T/C (second compound 0.1 µM, first compound 0.0316 µM): 97.8%
viability, T/C (second compound 0.1 µM, first compound 0.1 µM): 94.6%
viability, T/C (second compound 0.1 µM, first compound 0.316 µM): 72.4%
viability, T/C (second compound 0.1 µM, first compound 1 µM): 40.5%
viability, T/C (second compound 0.1 µM, first compound 3.16 µM): 13.2%
viability, T/C (second compound 0.1 µM, first compound 10 µM): 4.37%
viability, T/C (second compound 0.316 µM, first compound 0.0316 µM): 75.6%
viability, T/C (second compound 0.316 µM, first compound 0.1 µM): 66.5%
viability, T/C (second compound 0.316 µM, first compound 0.316 µM): 45.6%
viability, T/C (second compound 0.316 µM, first compound 1 µM): 17.1%
viability, T/C (second compound 0.316 µM, first compound 3.16 µM): 5.97%
viability, T/C (second compound 0.316 µM, first compound 10 µM): 2.34%
viability, T/C (second compound 1 µM, first compound 0.0316 µM): 44.7%
viability, T/C (second compound 1 µM, first compound 0.1 µM): 36.7%
viability, T/C (second compound 1 µM, first compound 0.316 µM): 37.1%
viability, T/C (second compound 1 µM, first compound 1 µM): 16.5%
viability, T/C (second compound 1 µM, first compound 3.16 µM): 7.72%
viability, T/C (second compound 1 µM, first compound 10 µM): 2.58%
viability, T/C (second compound 3.16 µM, first compound 0.0316 µM): 39.3%
viability, T/C (second compound 3.16 µM, first compound 0.1 µM): 39.6%
viability, T/C (second compound 3.16 µM, first compound 0.316 µM): 28.3%
viability, T/C (second compound 3.16 µM, first compound 1 µM): 13.2%
viability, T/C (second compound 3.16 µM, first compound 3.16 µM): 6.52%
viability, T/C (second compound 3.16 µM, first compound 10 µM): 3.11%
viability, T/C (second compound 10 µM, first compound 0.0316 µM): 28.6%
viability, T/C (second compound 10 µM, first compound 0.1 µM): 24.1%
viability, T/C (second compound 10 µM, first compound 0.316 µM): 15.9%
viability, T/C (second compound 10 µM, first compound 1 µM): 5.77%
viability, T/C (second compound 10 µM, first compound 3.16 µM): 5.31%
viability, T/C (second compound 10 µM, first compound 10 µM): 6.51%
